# “And” between values parts separate entries of the source, which are not always exact repeats. Identical values can stand only once.
# Tests used:
# xMuLV [1] = type: cell-based, xenotropic murine leukemia virus; details: initial screen, 10× CMC or 10% w/v, 30 minutes, 15° C., 5% virus spike, PG4 cells
# xMuLV [2] = assay: Concentration study, lowest concentration to inactivate virus; type: cell-based, xenotropic murine leukemia virus; details: 15° C., 30-minute incubation
# PRV = type: cell-based, pseudorabies herpes virus
# MMV = assay: Concentration study, lowest concentration to inactivate virus; type: cell-based, mouse minute virus
# xMuLV [3] = assay: Temperature-dependent study, TCID50 LRV in host cell culture fluid matrices; type: cell-based, xenotropic murine leukemia virus; details: for Viral inactivation in the presence of therapeutic modalities: between 30 seconds and 30 minutes, temperatures as low as 5° C. and 15° C.; for Inactivation at 30 minutes at both 5° C. and 15° C.: mAb, BiTE ®, fusion protein matrices
# xMuLV [4] = assay: Kinetic study of detergents, TCID50 LRV in host cell culture fluid matrices; type: cell-based, xenotropic murine leukemia virus
# [5] = Turbidity of detergent spiked HCCF; type: physicochemical; details: HCCF spiked at five times CMC, room temperature 5 days and 2-8° C. 7 days
# Experimental: Determination of turbidity was used to measure the stability of detergent spiked samples. Increased turbidity of the sample would reflect a precipitation of the protein molecule. 100 mL of harvested cell culture fluid (HCCF) collected from cultures of each molecule were subjected to four conditions: HCCF containing no detergent (control), APO128, APO129 and Triton X-100. The detergents were spiked at five times the detergent's critical micelle concentration (CMC) values, Triton-X: […] Two sample sets were generated for each molecule; one set was kept at room temperature for 5 days. The second set was kept at 2-8° C. for 7 days. The turbidity of each sample was measured using a turbidimeter (Hach Turbidime[…] 46500-00, Loveland, CO) on days 0, 1, 2, 5, and 7.
# [6] = as indicated by the Hampton Kit; cited from earlier work
Compound,Cytopathic effects (CPE) at 2.5×CMC (xMuLV [2]),Cytopathic effects (CPE) at 2.5×CMC (PRV),Cytopathic effects (CPE) at 2.5×CMC (MMV),"LRV BiTE ® (xMuLV [3]; 5° C., 30 minutes, 5× CMC)","LRV fusion protein (xMuLV [3]; 5° C., 30 minutes, 5× CMC)","LRV mAb (xMuLV [3]; 5° C., 30 minutes, 5× CMC)","LRV BiTE ® (xMuLV [3]; 15° C., 30 minutes, 5× CMC)","LRV fusion protein (xMuLV [3]; 15° C., 30 minutes, 5× CMC)","LRV mAb (xMuLV [3]; 15° C., 30 minutes, 5× CMC)",Viral inactivation in the presence of therapeutic modalities (xMuLV [3]),Inactivation at 30 minutes at both 5° C. and 15° C. (xMuLV [3]),"LRV 30 s (xMuLV [4]; BiTE ® #1, 15° C.)","LRV 10 min (xMuLV [4]; BiTE ® #1, 15° C.)","LRV 30 min (xMuLV [4]; BiTE ® #1, 15° C.)","LRV 30 s (xMuLV [4]; fusion protein #1, 15° C.)","LRV 10 min (xMuLV [4]; fusion protein #1, 15° C.)","LRV 30 min (xMuLV [4]; fusion protein #1, 15° C.)","LRV 30 s (xMuLV [4]; mAb #1, 15° C.)","LRV 10 min (xMuLV [4]; mAb #1, 15° C.)","LRV 30 min (xMuLV [4]; mAb #1, 15° C.)",further results
"CCCCCCCCCCCCOCCOCCOCCOCCOCCOCCOCCOCCO [Anapoe C12E8, 3,6,9,12,15,18,21,24-oxtaoxahexatriacontan-1-ol]",showed cytopathic effects (CPE),showed cytopathic effects (CPE),showed cytopathic effects (CPE),≥4.03 ± 0.18,≥4.23 ± 0.33,≥4.41 ± 0.37,≥4.32 ± 0.35,≥4.99 ± 0.42,≥3.28 ± 0.34,complete viral inactivation,complete inactivation,≥3.32 ± 0.35,≥3.32 ± 0.35,≥3.32 ± 0.35,≥3.99 ± 0.42,≥3.99 ± 0.42,≥3.99 ± 0.42,≥3.28 ± 0.34,≥3.28 ± 0.34,≥3.28 ± 0.34,Viral inactivation towards xMuLV (CPE) (xMuLV [1]): robustly inactivate the virus; Precipitation of protein modalities (turbidity) [5]: none of the detergents tested caused precipitation; CMC [6]: 0.11 mM
"CCCCCCCS[C@@H]1O[C@H](CO)[C@@H](O)[C@H](O)[C@H]1O [N-heptyl-β-D-thioglucopyranoside, Heptyl-β-D-1-thioglucopyranoside]",showed cytopathic effects (CPE),showed cytopathic effects (CPE),showed cytopathic effects (CPE),≥4.23 ± 0.33,≥4.07 ± 0.30,≥4.09 ± 0.25,≥4.03 ± 0.18,≥4.16 ± 0.42,≥4.22 ± 0.41,complete viral inactivation,complete inactivation,≥3.03 ± 0.18,≥3.03 ± 0.18,≥3.03 ± 0.18,≥3.16 ± 0.42,≥3.16 ± 0.42,≥3.16 ± 0.42,≥3.22 ± 0.41,≥3.22 ± 0.41,≥3.22 ± 0.41,CMC [6]: 29 mM
Polyoxyethylene(9)dodecyl ether [Anapoe C12E9],showed cytopathic effects (CPE),showed cytopathic effects (CPE),showed cytopathic effects (CPE),≥3.84 ± 0.33,≥4.19 ± 0.25,≥3.91 ± 0.30,≥3.91 ± 0.43,≥4.32 ± 0.36,≥4.23 ± 0.38,complete viral inactivation,complete inactivation,2.61 ± 0.68,≥2.91 ± 0.43,≥2.91 ± 0.43,2.56 ± 0.60,≥3.32 ± 0.36,≥3.32 ± 0.36,≥3.23 ± 0.00,≥3.23 ± 0.00,≥3.23 ± 0.00,Viral inactivation towards xMuLV (CPE) (xMuLV [1]): robustly inactivate the virus; Time to complete inactivation of xMuLV (xMuLV [4]; BiTE® #1): ≤ 10 min; Time to complete clearance of xMuLV (xMuLV [4]; all three therapeutic modalities): ≤ 10 min; Time to complete inactivation of xMuLV (xMuLV [4]; fusion protein #1): ≤ 10 min; Time to complete inactivation of xMuLV (xMuLV [4]; mAb #1): 0.5 min; Precipitation of protein modalities (turbidity) [5]: none of the detergents tested caused precipitation; CMC [6]: 0.05 mM
"polyoxyethylene octyl phenol ether [Triton X-100, reference compound]",,,,,,,,,,,,,,,,,,,,,"LRV fusion protein (xMuLV [3]; Triton X-100 control, 7° C., 800-sample large volume plate (1 LRV increase), Run 1 and Run 2): 5.03 ± 0.58 and 5.04 ± 0.57; Precipitation of protein modalities (turbidity) [5]: none of the detergents tested caused precipitation"

# Reference: patent US12649907B2, “Alternate detergents for viral inactivation” (AMGEN INC., priority 2019, dated 2026)
